From ChEMBL document CHEMBL1156349, “Junceol A, a new sesquiterpenoid from the sea pen Virgularia juncea” (2001) come the findings set out here.

Structures are written as SMILES. Values after ≈ are worked out from the molar mass of the structure shown.

The test system of this test is P388. Nature of the test: Cytotoxicity against mouse P388 cells by MTT assay. In kind it is functional. Conditions: read-out: ED50 (the source's name).
Regarding `C=C1CC[C@H](C(C)C)[C@@H]2[C@H]1[C@@H]1CC(=C)[C@@H](O)CC[C@](C)(O)[C@H]2O1` [CLADIELLISIN], the EC50 is 2 µg/mL (≈ 6.24 µM). As for `CC(=O)OC(C)(C)[C@H]1C=C2[C@@H](C)CC[C@@H](O)[C@]2(C)CC1` [JUNCEOL A], the figure is 5.1 µg/mL (≈ 18.2 µM); as for `C=C1CC[C@H](C(C)C)[C@@H]2[C@H]1[C@H]1C[C@](C)(O)[C@@H](O)CC[C@@](C)(O)[C@@H]2O1` [SCLEROPHYTIN A], 2.3 µg/mL (≈ 6.79 µM).
